Target: T1, recombinant hGYS1/GN1 protein (Homo sapiens, UniProt P13807)
T1 sequence (P13807 1-737): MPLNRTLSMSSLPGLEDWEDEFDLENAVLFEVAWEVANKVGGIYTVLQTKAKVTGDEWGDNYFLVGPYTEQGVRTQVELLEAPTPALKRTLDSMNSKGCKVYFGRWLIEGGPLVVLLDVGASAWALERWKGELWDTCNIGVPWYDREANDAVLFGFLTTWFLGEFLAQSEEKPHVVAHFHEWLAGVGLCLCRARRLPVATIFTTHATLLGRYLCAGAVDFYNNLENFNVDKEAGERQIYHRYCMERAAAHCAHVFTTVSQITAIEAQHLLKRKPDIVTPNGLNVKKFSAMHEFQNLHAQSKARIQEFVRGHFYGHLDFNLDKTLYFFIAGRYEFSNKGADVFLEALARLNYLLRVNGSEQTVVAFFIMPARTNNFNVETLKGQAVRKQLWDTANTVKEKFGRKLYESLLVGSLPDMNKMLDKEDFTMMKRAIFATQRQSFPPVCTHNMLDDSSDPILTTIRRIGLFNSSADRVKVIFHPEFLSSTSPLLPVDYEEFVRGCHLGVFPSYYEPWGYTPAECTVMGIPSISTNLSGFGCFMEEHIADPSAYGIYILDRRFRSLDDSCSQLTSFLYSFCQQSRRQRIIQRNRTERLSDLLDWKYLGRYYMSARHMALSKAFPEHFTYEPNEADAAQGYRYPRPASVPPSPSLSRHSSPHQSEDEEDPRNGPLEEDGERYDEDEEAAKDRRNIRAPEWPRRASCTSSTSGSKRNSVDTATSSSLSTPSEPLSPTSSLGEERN
T1 sequence (P46976 1-350 partner): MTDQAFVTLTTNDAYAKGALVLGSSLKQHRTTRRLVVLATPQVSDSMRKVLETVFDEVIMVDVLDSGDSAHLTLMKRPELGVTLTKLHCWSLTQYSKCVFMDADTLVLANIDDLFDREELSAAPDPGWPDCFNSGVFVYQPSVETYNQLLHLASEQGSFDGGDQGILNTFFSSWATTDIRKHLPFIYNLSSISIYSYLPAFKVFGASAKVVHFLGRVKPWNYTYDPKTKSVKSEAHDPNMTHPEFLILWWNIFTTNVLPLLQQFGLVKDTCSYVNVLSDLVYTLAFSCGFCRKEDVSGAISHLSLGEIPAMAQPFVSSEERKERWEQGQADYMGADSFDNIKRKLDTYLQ
Test: GYS1 coupled enzyme assay (PK/LDH)
Assay type: biochemical
Settings: geometric mean of at least 2 assay runs; NADH absorbance at 340 nm
Excerpt: The GYS1 coupled enzyme assay is a kinetic biochemical assay that indirectly quantifies the rate of glycogen synthesis by coupling the conversion of GYS1 substrate UDP-glucose into UDP with downstream enzymatic reactions. UDP is released from UDP-glucose as glucose monomers are linked into the growing glycogen strand by GYS1. The coupled assay then proceeds with pyruvate kinase utilizing UDP and phospho(enol)pyruvate (PEP) to form pyruvate. Lactate dehydrogenase then converts pyruvate and NADH into lactate and NAD+. Oxidation of NADH to NAD+ can be measured continuously with a plate reader by quantifying the decrease in NADH absorbance at 340 nm over time.
Compounds that inhibit the hGYS1 enzyme and, subsequently, the downstream conversion of NADH to NAD+, were tested using assay ready plates (black, clear bottom 384 well plates) in a final DMSO reaction volume of 2.5% DMSO. The Assay Buffer contained 50 mM Tris pH 7.5, 2 mM MgCl2, and 100 mM KCl. Fresh stocks of BSA at a final concentration of 0.02% and TCEP at 1 mM were added before splitting buffer into hGYS1 buffer and substrate buffer. To the hGYS1 buffer, rabbit liver glycogen was added at a final concentration of 0.2% glycogen. Glucose-6-Phosphate was added at 1 mM, recombinant hGYS1/GN1 protein was added at 50 nM to the substrate buffer, phosphoenolpyruvate (PEP) was added at 2 mM, UDP-Glucose was added at 0.8 mM, NADH) was added at 0.6 mM, and Pyruvate Kinase/Lactate Dehydrogenase was added at 20 units/mL. The reaction was initiated by mixing hGYS1 buffer and substrate buffer at a 1:1 ratio. Both buffers were plated using a liquid dispensing device with hGYS1 buffer plated first followed by the substrate buffer. Plates were spun briefly to eliminate air bubbles and are immediately read in continuous mode at an absorbance of 340 nm, for 10 time points in one-minute increments, for a total of 10 minutes. The slope from these 10 time points was normalized to the positive and negative control wells. The duplicate % inhibition values are then averaged and fit to a Hill equation for dose response according to the Levenberg-Marquardt algorithm with the Hill equation maximum set to 100 and the minimum set to 0.
The results are shown in Table 3 below, which reports the IC50 of each compound. Unless otherwise specified, IC50 values are reported as the geometric mean of at least 2 assay runs on separate days. Each run represents the average of a technical replicate, where each compound was assayed twice in the same plate. As shown in the table below, the compounds of the present invention are potent inhibitors of human GYS1.

Row | IC50 [nM] | SMILES
1 | 2220 | NC(=O)Nc1ccccc1[C@H](NC(=O)C1CC1)c1ccc(C2CC2)cc1 (single isomer, unassigned) [compound 17]
2 | 1220 | CC(C)c1ccc([C@@H](NC(=O)C2CC2)c2ccccc2Nc2ncco2)cc1 (single isomer, unassigned) [compound 31]
3 | 2000 | CC(C)c1ccc([C@@H](NC(=O)C2CC2)c2cccc3c2NC(=O)C3)cc1 (single isomer, unassigned) [compound 32]
4 | 1420 | COc1ccccc1[C@H](NC(=O)C1CC1)c1ccc(C(C)C)cn1 (single isomer, unassigned) [compound 33]
5 | 2440 | Cc1n[nH]cc1[C@H](NC(=O)C1CC1)c1ccc(C(C)C)cc1 (single isomer, unassigned) [compound 43]
6 | 1810 | Cc1ccccc1[C@H](NC(=O)C1CC1)c1ccc(C(C)C)cn1 (single isomer, unassigned) [compound 47]
7 | 737 | CC(=O)Nc1cccc([C@H](NC(=O)C2CC2)c2ccc(C(C)C)cc2)c1 [compound 6, (R)-N-((3-acetamidophenyl)(4-isopropylphenyl)methyl)cyclopropanecarboxamide]
8 | 1140 | Cc1ccccc1[C@H](NC(=O)[C@@H]1CCC[C@@H]1C#N)c1ccc(C(C)C)cc1 [compound 7, (1R,2S)-2-cyano-N-((R)-(4-isopropylphenyl)(o-tolyl)methyl)cyclopentane-1-carboxamide]
9 | 295 | CC(C)c1ccc([C@@H](NC(=O)C2CC2)c2ccccc2NC2NC(=O)N(C)C2=O)cc1 (stereo partly drawn) [compound 8, N-((1R)-(4-isopropylphenyl)(2-((1-methyl-2,5-dioxoimidazolidin-4-yl)amino)phenyl)methyl)cyclopropanecarboxamide]
10 | 1640 | CC(C)c1ccc([C@@H](NC(=O)[C@H]2C[C@@H]2F)c2ccccc2NC(=O)C2CCN(C)CC2)cc1 [compound 12, N-(2-((R)-((1R,2S)-2-fluorocyclopropane-1-carboxamido)(4-isopropylphenyl)methyl)phenyl)-1-methylpiperidine-4-carboxamide]
11 | 1740 | CNC(=O)[C@H]1CCC[C@H]1C(=O)N[C@H](c1ccc(C(C)C)cc1)c1ccccc1C [compound 16, (1R,2S)-N^1-((R)-(4-isopropylphenyl)(o-tolyl)methyl)-N^2-methylcyclopentane-1,2-dicarboxamide]
12 | 2980 | COC(=O)CCNC(=O)[C@H]1CCC[C@H]1C(=O)N[C@H](c1ccc(C(C)C)cc1)c1ccccc1C [compound 20, methyl 3-((1S,2R)-2-(((R)-(4-isopropylphenyl)(o-tolyl)methyl)carbamoyl)cyclopentane-1-carboxamido)propanoate]
13 | 1530 | CC(=O)NCC(=O)N[C@H]1CCC[C@H]1C(=O)N[C@@H](c1ccccc1)c1ccc(C(C)C)cc1 [compound 21, (1R,2S)-2-(2-acetamidoacetamido)-N-((S)-(4-isopropylphenyl)(phenyl)methyl)cyclopentane-1-carboxamide]
14 | 1280 | Cc1ccccc1[C@H](NC(=O)[C@@H]1CCC[C@@H]1C(=O)NC#N)c1ccc(C(C)C)cc1 [compound 22, (1S,2R)-N^1-cyano-N^2-((R)-(4-isopropylphenyl)(o-tolyl)methyl)cyclopentane-1,2-dicarboxamide]
15 | 1210 | CC(C)c1ccc([C@@H](NC(=O)C2CC2)c2ccccc2NC(=O)C2CN(CC(F)(F)F)C2)cc1 [compound 23, (R)-N-(2-(cyclopropanecarboxamido(4-isopropylphenyl)methyl)phenyl)-1-(2,2,2-trifluoroethyl)azetidine-3-carboxamide]
16 | 1200 | COCCN1CC(C(=O)Nc2ccccc2[C@H](NC(=O)C2CC2)c2ccc(C(C)C)cc2)C1 [compound 24, (R)-N-(2-(cyclopropanecarboxamido(4-isopropylphenyl)methyl)phenyl)-1-(2-methoxyethyl)azetidine-3-carboxamide]
17 | 1140 | CC(C)c1ccc([C@@H](NC(=O)C2CC2)c2ccccc2NC(=O)C2CN(CC3CC3)C2)cc1 [compound 25, (R)-N-(2-(cyclopropanecarboxamido(4-isopropylphenyl)methyl)phenyl)-1-(cyclopropylmethyl)azetidine-3-carboxamide]
18 | 2970 | CC(=O)N[C@@H](CC(N)=O)C(=O)N[C@H]1CCC[C@H]1C(=O)N[C@@H](c1ccccc1)c1ccc(C(C)C)cc1 [compound 28, (S)-2-acetamido-N^1-((1S,2R)-2-(((S)-(4-isopropylphenyl)(phenyl)methyl)carbamoyl)cyclopentyl)succinamide]
19 | 1390 | Cc1ccccc1[C@H](NC(=O)[C@@H]1CCC[C@@H]1C(N)=O)c1ccc(C(C)C)cc1 [compound 30, (1R,2S)-N^1-((R)-(4-isopropylphenyl)(o-tolyl)methyl)cyclopentane-1,2-dicarboxamide]
20 | 778 | CC(C)c1ccc([C@@H](NC(=O)[C@H]2CCC(F)C2)c2ccccc2)cc1 (stereo partly drawn) [compound 34, (1S)-3-fluoro-N-((S)-(4-isopropylphenyl)(phenyl)methyl)cyclopentane-1-carboxamide]
21 | 1130 | CC(C)c1ccc([C@@H](NC(=O)[C@H]2CCC(O)C2)c2ccccc2)cc1 (stereo partly drawn) [compound 35, (1S)-3-hydroxy-N-((S)-(4-isopropylphenyl)(phenyl)methyl)cyclopentane-1-carboxamide]
22 | 1920 | CC(C)c1ccc([C@@H](NC(=O)[C@@H]2CCC[C@@H]2NC(N)=O)c2ccccc2)cc1 [compound 38, (1R,2S)-N-((S)-(4-isopropylphenyl)(phenyl)methyl)-2-ureidocyclopentane-1-carboxamide]
23 | 1330 | O=C(N[C@@H](c1ccccc1)c1ccc(C2CCC2)cc1)C1CC1 [compound 40, (S)-N-((4-cyclobutylphenyl)(phenyl)methyl)cyclopropanecarboxamide]
24 | 2060 | O=C(N[C@@H](c1ccccc1)c1ccc(C2CC2)cc1)C1CC1 [compound 41, (S)-N-((4-cyclopropylphenyl)(phenyl)methyl)cyclopropanecarboxamide]
25 | 1480 | CC(=O)N1CC[C@H]1C(=O)Nc1ccccc1[C@H](NC(=O)C1CC1)c1ccc(C(C)C)cc1 [compound 42, (S)-1-acetyl-N-(2-((R)-cyclopropanecarboxamido(4-isopropylphenyl)methyl)phenyl)azetidine-2-carboxamide]
26 | 2490 | CC(C)c1ccc([C@@H](NC(=O)C2CC2)c2ccccc2)nc1 [compound 45, (S)-N-((5-isopropylpyridin-2-yl)(phenyl)methyl)cyclopropanecarboxamide]
27 | 1790 | CC(C)c1ccc([C@@H](NC(=O)C2CC2)c2ccccc2NC(=O)[C@@H]2CCN2)cc1 [compound 49, (S)-N-(2-((R)-cyclopropanecarboxamido(4-isopropylphenyl)methyl)phenyl)azetidine-2-carboxamide]

Reference: patent US20260085034A1, “N-(BENZHYDRYL)CYCLOALKYLCARBOXAMIDE DERIVATIVES AS INHIBITORS OF GLYCOGEN SYNTHASE 1 (GYS1) AND METHODS OF USE THEREOF” (Maze Therapeutics, Inc., priority 2022, published 2026)
